Reference: US20240199572A1, “COMPOUNDS, COMPOSITIONS, AND METHODS FOR TREATING TYPE 2 DIABETES AND DEMENTIA” (THE BOARD OF TRUSTEES OF THE UNIVERSITY OF ILLINOIS, priority 2021, published 2024)

How the values were obtained:
J774 cells = experiment: BODIPY-cholesterol efflux from J774 macrophages to apoA1; assay type: cell-based
Experimental: Cholesterol Efflux. Plated J774 cells (RRID:CVCL 0358) purchased from ATCC and used without further validation were incubated in serum-free medium containing 0.5 μM BODIPY-cholesterol (Cayman) for 24 hours. Medium was replaced with fresh serum-free medium containing test compound for 24 hours. For experiments with probucol (Sigma), it was added at 20 μM for the final 2 hours with test compound. Then, fresh serum-free medium containing 20 μg/mL purified recombinant apolipoprotein A1 (Sigma) was added for 6 hours. Acceptor-containing medium was transferred to a new plate, while cells were lysed with RIPA buffer. Fluorescence (Ex480/Em530) was measured in both components, with data reported as % efflux=(medium fluorescence)/(medium fluorescence+lysate fluorescence) normalized to background efflux (% efflux in DMSO-treated cells without exogenous apoA1).

ABCA1 = experiment: ABCA1-linked luciferase assay in HepG2 cells; assay type: cell-based
Experimental: Luciferase. HepG2 cells (RRID:CVCL 0027) purchased from ATCC and used without further validation were stably transfected with pGreenFire1-LXRE-in-ABCA1 plasmid, which contains the ABCA1 promoter sequence linked to a luciferase response element, then selected over multiple generations with puromycin and frozen in liquid N2. For assays, transfected cells were plated 24 hours in medium (Gibco) containing charcoal-stripped serum (Gemini), followed by a 24-hour treatment. Cells were lysed with passive lysis buffer (Promega), frozen at −80° C. for 15 minutes, and shaken at room temperature for 2 hours before quantification with luciferase assay system (Promega) on a Synergy Neo2 plate reader.

ABCA1 mRNA = ABCA1 mRNA - J774 (qRT-PCR); assay type: cell-based, mouse
From the text: qRT-PCR. For cell samples, treated cells were lysed with RLT plus lysis buffer (Qiagen). RNA was isolated with Qiagen RNEASY® Plus columns per manufacturer instructions, then reverse-transcribed to cDNA using […]® III Reverse Transcriptase (200 U/μL, Invitrogen) per supplier protocol. qPCR experiments were either performed with TAQMAN® gene expression master mix (Invitrogen) on a StepOne™ qPCR instrument or with […]® SYBR® Green SuperMix (Quanta Biosciences) on CFX Connect™ Real-Time PCR Detection System (BioRad), with fold-change quantified by ΔΔCt. For animal samples, 100 mg tissue was homogenized in 1 mL acid-guanidinium-phenol based reagent sold under the tradename TRIZOL® (Ambion), mixed vigorously in chloroform, and separated by centrifugation. Aqueous layer containing RNA was added to Qiagen RNEASY® Plus column; remaining stops were as described above for cell lysates.

PPARγ = target: T1, PPARγ (Homo sapiens, UniProt P37231); experiment: PPARγ NHR screen, antagonist mode; conditions: cell-based β-gal reporter assay, 10 μM
T1 sequence (P37231 1-505): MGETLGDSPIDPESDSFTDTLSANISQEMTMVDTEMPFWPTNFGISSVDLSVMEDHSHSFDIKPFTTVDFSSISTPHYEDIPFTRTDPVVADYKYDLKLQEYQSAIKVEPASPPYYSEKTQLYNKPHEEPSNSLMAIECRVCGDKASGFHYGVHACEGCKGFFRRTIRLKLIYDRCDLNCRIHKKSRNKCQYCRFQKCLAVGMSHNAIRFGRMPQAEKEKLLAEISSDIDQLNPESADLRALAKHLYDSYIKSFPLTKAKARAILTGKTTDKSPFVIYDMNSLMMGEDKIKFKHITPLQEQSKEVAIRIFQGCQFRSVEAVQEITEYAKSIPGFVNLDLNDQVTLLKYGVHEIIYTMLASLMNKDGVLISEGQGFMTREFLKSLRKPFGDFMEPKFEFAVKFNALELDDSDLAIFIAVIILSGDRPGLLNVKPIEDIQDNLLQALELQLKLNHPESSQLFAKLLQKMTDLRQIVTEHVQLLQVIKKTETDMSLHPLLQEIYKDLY
Experimental: (§1) Receptor Binding Assays. Nuclear hormone (NHR) assays were performed by DiscoverX (Fremont, CA) on their NHR-Scan platform of cell-based protein-protein interaction assays. This platform uses a […] reporter that activates upon interaction of full-length receptor protein with steroid coactivator receptor peptides. In agonist mode, activity of CL2-57 at 10 μM was compared to maximal activity of published positive control agonists; in antagonist mode, reduction in activity with 10 μM CL2-57 from that observed at […] of published agonists was quantified.

CD1 mice = experiment: CD1 mice, three daily p.o. treatments, LXR agonist adverse effects; assay type: in vivo, mouse; conditions: 10 mg/kg p.o., three days
From the text: Neutrophil Counts. […] After final dose, blood samples were run on an Advia 120 analyzer (Bayer) for neutrophil counts.

LXRα = target: T2, LXRα (Homo sapiens, UniProt Q13133); experiment: LXRα NHR screen (DiscoverX NHR-Scan, β-gal reporter); assay type: cell-based
T2 sequence (Q13133 1-447): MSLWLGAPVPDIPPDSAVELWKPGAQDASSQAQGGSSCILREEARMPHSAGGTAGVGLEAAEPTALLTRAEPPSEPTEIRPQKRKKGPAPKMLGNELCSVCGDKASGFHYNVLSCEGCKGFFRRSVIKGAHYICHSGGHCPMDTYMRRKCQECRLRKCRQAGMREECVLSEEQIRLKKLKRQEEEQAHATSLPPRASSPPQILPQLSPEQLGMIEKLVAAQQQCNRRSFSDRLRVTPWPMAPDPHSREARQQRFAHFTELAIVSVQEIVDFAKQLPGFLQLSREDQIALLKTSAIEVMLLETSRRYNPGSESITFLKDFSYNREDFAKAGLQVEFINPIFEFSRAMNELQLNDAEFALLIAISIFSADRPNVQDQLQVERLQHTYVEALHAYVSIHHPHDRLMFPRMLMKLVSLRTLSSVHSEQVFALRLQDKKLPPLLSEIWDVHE
Experimental: as §1

ABCA1 protein = ABCA1 protein - HepG2 (immunoblot); assay type: cell-based; conditions: HepG2 hepatocarcinoma cells
Experimental: In vitro Immunoblot. Cells were lysed with RIPA buffer (Sigma) containing protease/phosphatase inhibitors (Cocktails II and III, respectively, EMD Millipore). Protein was quantified by BCA assay (Thermo Fisher Scientific). Denatured proteins were separated by gel electrophoresis (NuPage™ 4-12% Bis-Tris, Invitrogen) in MOPS running buffer at 120 V for 1 hour. Proteins were transferred to PDVF membranes (iBlot2). Membrane was blocked in 5% skim milk for 1 hour, incubated with primary antibody at 4° C. overnight, washed with TBST, and then incubated with HRP-linked secondary antibody (Cell Signaling Technology) for 1 hour at room temperature. After TBST wash, membrane was imaged using SUPERSIGNAL® West Femto™ substrate (Thermo Fisher Scientific) on Azure Biosystems c400 imager. Antibodies used: Abcam ab18180 (ABCA1, RRID:AB 444302), Thermo Fisher MA5-11685 (SREBP1, RRID:AB_10984077), Invitrogen MA5-15738 (GAPDH, RRID:AB_10977387).

CCOC(=O)c1cccc(NC(=O)c2sc(Cl)cc2S(=O)(=O)N(C)c2ccc(OCC)c(OCC)c2)c1 [CL2-57, ethyl 3-(5-chloro-3-(N-(3,4-diethoxyphenyl)-N-methylsulfamoyl)thiophene-2-carboxamido) benzoate]
Cholesterol Efflux - J774, activity of CL2-57 (10 μM) as % of T0901317 (1 μM) (J774 cells; 10 μM): 183%
Cholesterol efflux from macrophages to apoA1 (J774 cells; fluorescent BODIPY-tagged cholesterol): dose-dependently increased
Increased cholesterol efflux with ABCA1 inhibitor probucol (J774 cells; probucol 20 μM for the final 2 hours): blocked
ABCA1 luciferase, activity of CL2-57 (10 μM) as % of T0901317 (1 μM) (ABCA1; 10 μM): 127%
Emax, ABCA1-linked luciferase activity (ABCA1; HepG2 liver cells): 250 % of vehicle
EC50 (ABCA1; Homo sapiens, HepG2 liver cells, read-out: EC50, ABCA1-linked luciferase activity): 1800 nM
ABCA1-linked luminescence with CL2-57 titration (ABCA1; in the presence of RXR agonist bexarotene, increased from 2.5-fold): 4.5 fold
ABCA1-linked luminescence with CL2-57 titration (ABCA1; in the presence of pan-LXR agonist T0901317): no increase
ABCA1 mRNA - J774, activity of CL2-57 (10 μM) as % of T0901317 (1 μM) (ABCA1 mRNA; 10 μM): 90%
ABCA1 mRNA (ABCA1 mRNA; J774 macrophage cells): Increased
Functional mode at PPARγ (PPARγ): weak antagonist
Circulating neutrophil levels (CD1 mice): did not affect
Plasma TG (CD1 mice): did not affect
Plasma cholesterol (CD1 mice): did not affect
LXRα NHR screen, activity of CL2-57 (10 μM) as % of T0901317 (1 μM) (LXRα): 34%
ABCA1 protein (ABCA1 protein): Increased
